Source: US12227500B2, “Substituted pyrrolo[2,3-b]pyridines for suppressing toxic endoplasmic reticulum stress” (THE TRUSTEES OF COLUMBIA UNIVERSITY IN THE CITY OF NEW YORK, priority 2018, dated 2025)
Where two headings read alike, the source gives them in different places.

Key:
Test in all cases: Radiolabeled ATP kinase assay, panel of 60 kinases (Table S5)
Format in all cases: biochemical
[1] = biological target: T1, panel of 60 human kinases (Homo sapiens, UniProt O14965); details: Aurora A; 0.1 μM; 10 μM ATP; read-out: % Enzyme Activity (relative to DSMO controls)
T1 construct: purchased Reaction Biology Corp
T1 sequence (O14965 1-403): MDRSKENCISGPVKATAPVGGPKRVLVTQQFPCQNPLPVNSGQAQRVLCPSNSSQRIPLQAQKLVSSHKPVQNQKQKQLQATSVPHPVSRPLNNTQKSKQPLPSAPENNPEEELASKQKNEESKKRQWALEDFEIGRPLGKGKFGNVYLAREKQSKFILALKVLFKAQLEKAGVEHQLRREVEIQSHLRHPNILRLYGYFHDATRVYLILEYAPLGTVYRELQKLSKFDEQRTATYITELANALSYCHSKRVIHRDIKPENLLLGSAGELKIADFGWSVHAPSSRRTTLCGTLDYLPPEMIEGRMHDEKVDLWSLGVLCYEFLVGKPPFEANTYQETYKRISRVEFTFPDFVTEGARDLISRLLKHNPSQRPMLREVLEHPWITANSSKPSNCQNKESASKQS
Method: (§1) To better understand the biologically relevant targets of compound 1 and its analogs, a second round of cell-free kinase assays was performed. In this expanded assay, we selected ten analogs ranging from moderately to very strongly protective in the CPA assay. These analogs were evaluated for their ability to inhibit a selection of 60 kinases at 0.1 μM and 0.5 μM. […] RNAseq data were used to confirm the expression of each kinase in ES MNs (see Example 12).
(§2) RNAseq data were used to confirm the expression of each kinase in ES motor neurons (see Example 12).

[2] = biological target: T2, panel of 60 human kinases (Homo sapiens, UniProt O94921); details: CDK14/cyclin Y (PFTK1); 0.1 μM; 10 μM ATP; read-out: % Enzyme Activity (relative to DSMO controls)
T2 construct: purchased Reaction Biology Corp
T2 sequence (O94921 whole entry): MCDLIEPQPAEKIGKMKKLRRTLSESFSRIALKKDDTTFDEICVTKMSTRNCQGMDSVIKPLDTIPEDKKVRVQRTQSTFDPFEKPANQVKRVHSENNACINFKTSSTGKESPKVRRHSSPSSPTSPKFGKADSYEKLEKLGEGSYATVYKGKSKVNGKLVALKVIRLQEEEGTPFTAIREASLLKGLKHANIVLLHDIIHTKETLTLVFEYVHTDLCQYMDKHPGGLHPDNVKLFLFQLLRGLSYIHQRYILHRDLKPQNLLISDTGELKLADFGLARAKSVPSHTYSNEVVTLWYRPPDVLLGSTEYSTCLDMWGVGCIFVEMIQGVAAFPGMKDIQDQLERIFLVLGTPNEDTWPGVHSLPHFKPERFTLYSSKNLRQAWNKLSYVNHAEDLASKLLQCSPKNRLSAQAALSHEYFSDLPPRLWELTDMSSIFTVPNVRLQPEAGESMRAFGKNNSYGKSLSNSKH
Method: as §1, §2

[3] = biological target: T3, panel of 60 human kinases (Homo sapiens, UniProt P24941); details: 0.1 μM, 10 μM ATP, read-out: % Enzyme Activity (relative to DSMO controls)
T3 construct: purchased Reaction Biology Corp
Method: as §1, §2

[4] = biological target: T4, panel of 60 human kinases (Homo sapiens, UniProt Q00537); details: CDK17/cyclin Y (PCTK2); 0.1 μM; 10 μM ATP; read-out: % Enzyme Activity (relative to DSMO controls)
T4 construct: purchased Reaction Biology Corp
T4 sequence (Q00537 whole entry): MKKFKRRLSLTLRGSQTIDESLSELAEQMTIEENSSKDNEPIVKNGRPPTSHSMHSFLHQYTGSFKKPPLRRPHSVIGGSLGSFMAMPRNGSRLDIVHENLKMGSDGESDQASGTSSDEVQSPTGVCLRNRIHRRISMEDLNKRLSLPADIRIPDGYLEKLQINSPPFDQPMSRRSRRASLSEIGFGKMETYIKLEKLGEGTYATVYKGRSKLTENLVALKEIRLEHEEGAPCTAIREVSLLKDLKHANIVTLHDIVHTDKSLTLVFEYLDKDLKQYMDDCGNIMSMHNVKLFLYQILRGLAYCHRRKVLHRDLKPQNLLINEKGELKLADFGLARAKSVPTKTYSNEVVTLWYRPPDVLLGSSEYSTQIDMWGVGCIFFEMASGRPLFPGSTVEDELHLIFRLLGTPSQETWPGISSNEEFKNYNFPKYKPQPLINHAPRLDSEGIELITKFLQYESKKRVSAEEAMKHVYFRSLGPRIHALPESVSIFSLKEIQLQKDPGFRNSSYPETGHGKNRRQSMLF
Method: as §1, §2

[5] = biological target: T5, panel of 60 human kinases (Homo sapiens, UniProt Q07002); details: CDK18/cyclin Y (PCTK3); 0.1 μM; 10 μM ATP; read-out: % Enzyme Activity (relative to DSMO controls)
T5 construct: purchased Reaction Biology Corp
T5 sequence (Q07002 whole entry): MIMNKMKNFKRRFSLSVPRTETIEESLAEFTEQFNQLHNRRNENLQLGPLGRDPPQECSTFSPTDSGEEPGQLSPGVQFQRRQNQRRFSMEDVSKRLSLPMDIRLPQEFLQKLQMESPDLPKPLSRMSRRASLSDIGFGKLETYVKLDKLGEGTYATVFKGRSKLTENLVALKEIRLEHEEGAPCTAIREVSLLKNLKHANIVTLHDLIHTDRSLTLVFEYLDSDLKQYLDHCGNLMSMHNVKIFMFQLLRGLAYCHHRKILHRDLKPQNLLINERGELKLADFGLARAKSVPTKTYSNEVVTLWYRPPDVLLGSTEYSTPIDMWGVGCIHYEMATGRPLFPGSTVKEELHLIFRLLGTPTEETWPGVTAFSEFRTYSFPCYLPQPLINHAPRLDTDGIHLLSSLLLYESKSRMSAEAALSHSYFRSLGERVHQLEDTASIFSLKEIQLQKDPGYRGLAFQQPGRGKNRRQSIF
Method: as §1, §2

[6] = biological target: T6, panel of 60 human kinases (Homo sapiens, UniProt Q92630); details: DYRK2; 0.1 μM; 10 μM ATP; read-out: % Enzyme Activity (relative to DSMO controls)
T6 construct: purchased Reaction Biology Corp
T6 sequence (Q92630 1-601): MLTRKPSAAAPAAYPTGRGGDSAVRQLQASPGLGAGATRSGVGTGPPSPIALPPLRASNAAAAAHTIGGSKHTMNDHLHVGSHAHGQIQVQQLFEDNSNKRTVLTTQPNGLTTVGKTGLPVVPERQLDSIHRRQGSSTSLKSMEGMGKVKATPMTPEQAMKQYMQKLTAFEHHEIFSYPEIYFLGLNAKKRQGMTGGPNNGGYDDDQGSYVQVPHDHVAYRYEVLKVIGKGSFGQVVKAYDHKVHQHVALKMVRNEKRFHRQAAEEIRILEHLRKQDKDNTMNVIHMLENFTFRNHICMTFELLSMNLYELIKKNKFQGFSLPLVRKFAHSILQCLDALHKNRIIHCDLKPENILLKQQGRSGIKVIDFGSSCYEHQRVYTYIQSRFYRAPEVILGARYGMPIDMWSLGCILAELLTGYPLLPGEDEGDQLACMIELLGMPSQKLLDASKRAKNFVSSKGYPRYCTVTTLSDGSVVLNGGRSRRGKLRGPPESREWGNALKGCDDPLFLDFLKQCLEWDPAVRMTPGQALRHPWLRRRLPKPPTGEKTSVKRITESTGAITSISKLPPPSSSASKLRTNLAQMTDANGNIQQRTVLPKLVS
Method: as §1, §2

[7] = biological target: T7, panel of 60 human kinases (Homo sapiens, UniProt Q9UKE5); details: TNIK; 0.1 μM; 10 μM ATP; read-out: % Enzyme Activity (relative to DSMO controls)
T7 construct: purchased Reaction Biology Corp
T7 sequence (Q9UKE5 whole entry): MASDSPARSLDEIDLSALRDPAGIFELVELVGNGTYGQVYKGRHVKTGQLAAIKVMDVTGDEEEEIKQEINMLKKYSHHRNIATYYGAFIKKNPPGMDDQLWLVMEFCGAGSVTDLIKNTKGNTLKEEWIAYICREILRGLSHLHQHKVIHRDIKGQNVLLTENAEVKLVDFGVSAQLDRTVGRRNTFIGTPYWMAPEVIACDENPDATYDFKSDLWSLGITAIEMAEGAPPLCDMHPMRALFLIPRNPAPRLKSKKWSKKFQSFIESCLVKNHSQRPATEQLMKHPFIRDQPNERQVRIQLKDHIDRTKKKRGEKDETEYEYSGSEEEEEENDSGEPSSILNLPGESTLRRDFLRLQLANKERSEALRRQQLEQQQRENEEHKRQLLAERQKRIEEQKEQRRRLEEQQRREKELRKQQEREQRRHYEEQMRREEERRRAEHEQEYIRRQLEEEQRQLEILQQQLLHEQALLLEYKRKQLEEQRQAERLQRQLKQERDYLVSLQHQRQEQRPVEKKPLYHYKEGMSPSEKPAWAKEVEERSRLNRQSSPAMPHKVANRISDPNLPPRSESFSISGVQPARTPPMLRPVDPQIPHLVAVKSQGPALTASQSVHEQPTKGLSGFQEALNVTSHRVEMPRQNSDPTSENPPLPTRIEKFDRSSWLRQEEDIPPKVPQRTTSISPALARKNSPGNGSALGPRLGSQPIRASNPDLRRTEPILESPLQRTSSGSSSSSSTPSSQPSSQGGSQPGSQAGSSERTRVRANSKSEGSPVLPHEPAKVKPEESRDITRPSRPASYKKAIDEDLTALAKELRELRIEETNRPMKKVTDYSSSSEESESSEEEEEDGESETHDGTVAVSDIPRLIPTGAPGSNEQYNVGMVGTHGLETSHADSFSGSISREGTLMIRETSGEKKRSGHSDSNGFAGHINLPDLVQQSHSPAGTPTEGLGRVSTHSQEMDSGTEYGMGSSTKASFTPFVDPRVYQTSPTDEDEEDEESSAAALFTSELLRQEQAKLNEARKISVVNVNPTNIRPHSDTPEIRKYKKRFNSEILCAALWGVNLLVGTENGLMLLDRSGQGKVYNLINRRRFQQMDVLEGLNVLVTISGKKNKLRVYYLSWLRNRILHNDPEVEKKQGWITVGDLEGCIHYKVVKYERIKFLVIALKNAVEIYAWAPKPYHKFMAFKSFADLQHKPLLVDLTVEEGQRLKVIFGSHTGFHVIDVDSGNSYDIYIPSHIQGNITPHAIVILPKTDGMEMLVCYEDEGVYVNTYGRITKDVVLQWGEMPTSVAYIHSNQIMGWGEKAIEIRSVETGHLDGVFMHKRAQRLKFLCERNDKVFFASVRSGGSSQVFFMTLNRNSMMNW
Method: as §1, §2

[8] = biological target: T8, panel of 60 human kinases (Homo sapiens, UniProt Q9UQB9); details: Aurora C; 0.1 μM; 10 μM ATP; read-out: % Enzyme Activity (relative to DSMO controls)
T8 construct: purchased Reaction Biology Corp
T8 sequence (Q9UQB9 1-309): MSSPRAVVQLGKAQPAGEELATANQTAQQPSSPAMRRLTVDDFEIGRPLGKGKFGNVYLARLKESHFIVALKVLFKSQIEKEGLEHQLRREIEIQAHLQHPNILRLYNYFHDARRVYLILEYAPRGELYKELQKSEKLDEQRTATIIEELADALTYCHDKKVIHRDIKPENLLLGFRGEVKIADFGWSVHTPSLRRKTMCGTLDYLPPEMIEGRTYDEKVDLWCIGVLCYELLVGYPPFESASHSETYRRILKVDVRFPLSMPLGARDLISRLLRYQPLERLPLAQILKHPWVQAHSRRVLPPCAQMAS
Method: as §1, §2

Row | SMILES | remaining activity at 0.1 µM [1] [%] | remaining activity at 0.1 µM [2] [%] | remaining activity at 0.1 µM ([3]; CDK2/cyclin A1) [%] | remaining activity at 0.1 µM ([3]; CDK2/cyclin A) [%] | remaining activity at 0.1 µM ([3]; CDK2/cyclin E) [%] | remaining activity at 0.1 µM ([3]; CDK2/cyclin O) [%] | remaining activity at 0.1 µM [4] [%] | remaining activity at 0.1 µM [5] [%] | remaining activity at 0.1 µM [6] [%] | remaining activity at 0.1 µM [7] [%] | remaining activity at 0.1 µM [8] [%]
1 | CN1CCN(Cc2ccc(-c3cnc4[nH]cc(-c5ccc6[nH]ccc6c5)c4c3)cc2)CC1 [Compound 1, 3-(1H-Indol-5-yl)-5-(4-((4-methylpiperazin-1-yl)methyl)phenyl)-1H-pyrrolo[2,3-b]pyridine, reference compound] | 81.4 | 88.2 | 83.6 | 83.7 | 97.9 | 72.5 | 66.1 | 103 | 44 | 3 | 82.8
2 | CN1CCN(Cc2ccc(-c3cnc4[nH]cc(-c5ccccc5Cl)c4c3)cc2)CC1 [Compound 7as, 3-(2-Chlorophenyl)-5-(4-((4-methylpiperazin-1-yl)methyl)phenyl)-1H-pyrrolo[2,3-b]pyridine] | 81.1 | 85 | 65 | 69.5 | 88.5 | 51.2 | 44.1 | 95.5 | 18.2 | 0.51 | 94.2
3 | CN1CCN(Cc2ccc(-c3cnc4[nH]cc(-c5cnn(Cc6ccccc6)c5)c4c3)cc2)CC1 [Compound 7ah, 3-(1-Benzyl-1H-pyrazol-4-yl)-5-(4-((4-methylpiperazin-1-yl)methyl)phenyl)-1H-pyrrolo[2,3-b]pyridine] | 48.4 | 30.1 | 30.7 | 44.2 | 48.9 | 19.2 | 7.55 | 16.1 | 59.3 | 0.96 | 78.5
4 | CN1CCN(Cc2ccc(-c3cnc4[nH]cc(-c5ccncc5)c4c3)cc2)CC1 [Compound 7n, 5-(4-((4-Methylpiperazin-1-yl)methyl)phenyl)-3-(pyridin-4-yl)-1H-pyrrolo[2,3-b]pyridine] | 96.4 | 35 | 60.2 | 66 | 54.3 | 43.7 | 10.7 | 24 | 63.6 | 6.7 | 101
5 | COc1ccccc1-c1c[nH]c2ncc(-c3ccc(CN4CCN(C)CC4)cc3)cc12 [Compound 7at, 3-(2-Methoxyphenyl)-5-(4-((4-methylpiperazin-1-yl)methyl)phenyl)-1H-pyrrolo[2,3-b]pyridine] | 90.2 | 76.4 | 58.8 | 56.1 | 80.6 | 29.6 | 69.7 | 97.1 | 96.8 | 2.2 | 107
6 | CN1CCN(Cc2ccc(-c3cnc4[nH]cc(-c5cccc(Cl)c5)c4c3)cc2)CC1 [Compound 7ad, 3-(3-Chlorophenyl)-5-(4-((4-methylpiperazin-1-yl)methyl)phenyl)-1H-pyrrolo[2,3-b]pyridine] | 97.3 | 92.5 | 97 | 87.4 | 96.2 | 75.1 | 70.4 | 112 | 69.7 | 0.68 | 104
7 | CN1CCN(Cc2ccc(-c3cnc4[nH]cc(-c5ccoc5)c4c3)cc2)CC1 [Compound 7w, 3-(Furan-3-yl)-5-(4-((4-methylpiperazin-1-yl)methyl)phenyl)-1H-pyrrolo[2,3-b]pyridine] | 83.9 | 83.8 | 88.6 | 91.1 | 92.4 | 80.2 | 61.4 | 94.5 | 90.4 | 0.45 | 94.3
8 | CN1CCN(Cc2ccc(-c3cnc4[nH]cc(-c5ccc6c(c5)OCCO6)c4c3)cc2)CC1 [Compound 7d, 3-(2,3-Dihydrobenzo[b][1,4]dioxin-6-yl)-5-(4-((4-methylpiperazin-1-yl)methyl)phenyl)-1H-pyrrolo[2,3-b]pyridine] | 74.8 | 66.3 | 38.8 | 34.4 | 89.1 | 39 | 41.1 | 82.8 | 8.19 | 12.1 | 92.3
9 | Cc1nn(C)c(C)c1-c1c[nH]c2ncc(-c3ccc(CN4CCN(C)CC4)cc3)cc12 [Compound 7ai, 5-(4-((4-Methylpiperazin-1-yl)methyl)phenyl)-3-(1,3,5-trimethyl-1H-pyrazol-4-yl)-1H-pyrrolo[2,3-b]pyridine] | 95.5 | 83.9 | 87.8 | 90.9 | 94.8 | 77.9 | 69.4 | 100 | 66.5 | 1.35 | 122
